{"source": "patent US7943793B2", "about": "“Optically active organic acidate-bridged dinuclear platinum(II) complex” (Osaka University, priority 2007, dated 2011)", "type_in_all_cases": "cell-based", "key": {"[1]": {"tested_on": "lung cancer cell DMS273", "test": "Cancer growth inhibitory activity, lung cancer cell DMS273", "settings": "for Cancer growth inhibitory activity (average log GI50): lung cancer cell DMS273; for cancer growth inhibitory activity relative to oxaliplatin: lung cancer cells, higher than oxaliplatin"}, "[2]": {"tested_on": "colon cancer cell HT-29", "test": "Cancer growth inhibitory activity, colon cancer cell HT-29", "settings": "for Cancer growth inhibitory activity (average log GI50): colon cancer cell HT-29; for cancer growth inhibitory activity relative to oxaliplatin: colon cancer cells, stronger than oxaliplatin"}, "[3]": {"tested_on": "39 kinds of cancer cells", "test": "In vitro cancer growth inhibitory activity, sulforhodamine B, panel of 39 cancer cell lines", "settings": "average over 39 kinds of cancer cells, 2 days culture with sample", "description": "The in vitro cancer growth inhibitory activity was assessed according to the method described in Jpn J Cancer Chemother, 24, 129 (1997) and Cancer Chemothr. Pharmacol., 52 Suppl 1, S74-79 (2003). Namely, a total of 39 different kinds of cancer cells at logarithmic growth phase were separately seeded into wells of 96 well plates, and incubated at 37° C. for 1 day. The cancer cells used were 5 kinds of breast cancer cells (HBC-4, BSY-1, HBC-5, MCF-7, MDA-MB-231), 6 kinds of glioma cancer cells (U251, SF-268, SF-295, SF-539, SNB-75, SNB-78), 5 kinds of colon cancer cells (HCC2998, KM-12, HT-29, HCT-15, HCT-116), 7 kinds of lung cancer cells (NCI-H23, NCL-H226, NCL-H522, NCL-H460, A549, DMS273, DMS114), 1 kind of melanoma cell (LOX-IMVI), 5 kinds of ovarian cancer cells (OVCAR-3, OVCAR-4, OVCAR-5, OVCAR-8, SK-OV-3), 2 kinds of renal cancer cells (RXF-631L, ACHN), 6 kinds of gastric cancer cells (St-4, MKN1, MKN7, MKN28, MKN45, MKN74), and 2 kinds of prostate cancer cells (DU-145, PC-3). Each sample solution was added to the wells on the following day, and culture was continued at 37° C. for another 2 days. Then, the degree of cell growth was determined by the colorimetric measurement using sulforhodamine B. The cancer growth inhibitory activity was assessed based on the average log GI50 (GI50 indicates the concentration required to inhibit 50% of cell growth) against 39 kinds of cancer cells."}, "[4]": {"tested_on": "renal cancer cell RXF631L", "test": "Cancer growth inhibitory activity, renal cancer cell RXF631L", "settings": "for Cancer growth inhibitory activity (average log GI50): renal cancer cell RXF631L"}, "[5]": {"tested_on": "gastric cancer cell MKN-7", "test": "Cancer growth inhibitory activity, gastric cancer cell MKN-7", "settings": "for Cancer growth inhibitory activity (average log GI50): gastric cancer cell MKN-7"}}, "data": [{"molecule": "L-tartrate-bridged dinuclear 1R,2R-1,2-trans-cyclohexanediamine platinum(II) complex nitrate [[{Pt(R,R-dach)}2(μ-L-tartH)]NO3•4H2O]", "values": [{"measurement": "Cancer growth inhibitory activity (average log GI50)", "setting": "[1]", "value": "−7.31"}, {"measurement": "cancer growth inhibitory activity relative to oxaliplatin", "setting": "[1]", "value": "about 20 times"}, {"measurement": "Cancer growth inhibitory activity (average log GI50)", "setting": "[2]", "value": "−7.00"}, {"measurement": "cancer growth inhibitory activity relative to oxaliplatin", "setting": "[2]", "value": "about 100 times"}, {"measurement": "Cancer growth inhibitory activity (average log GI50)", "setting": "[3]", "value": "−5.99"}, {"measurement": "Cancer growth inhibitory activity (average log GI50)", "setting": "[4]", "value": "−4.92"}, {"measurement": "Cancer growth inhibitory activity (average log GI50)", "setting": "[5]", "value": "−4.98"}]}, {"molecule": "O=C1[O][Pt-2]2([NH2+]C3CCCC[C@H]3[NH2+]2)[O]C1=O", "note": "(stereo partly drawn) [Oxaliplatin, oxalato(1R,2R-1,2-cyclohexanediamine)platinum(II), reference compound]", "values": [{"measurement": "Cancer growth inhibitory activity (average log GI50)", "setting": "[1]", "value": "−6.06"}, {"measurement": "Cancer growth inhibitory activity (average log GI50)", "setting": "[2]", "value": "−4.91"}, {"measurement": "Cancer growth inhibitory activity (average log GI50)", "setting": "[3]", "value": "−5.03"}, {"measurement": "Cancer growth inhibitory activity (average log GI50)", "setting": "[4]", "value": "−4.13"}, {"measurement": "Cancer growth inhibitory activity (average log GI50)", "setting": "[5]", "value": "−4.68"}]}, {"molecule": "L-tartrate-bridged dinuclear 1S,2S-1,2-trans-cyclohexanediamine platinum(II) complex nitrate [[{Pt(S,S-dach)}2(μ-L-tartH)]NO3•4H2O]", "values": [{"measurement": "Cancer growth inhibitory activity (average log GI50)", "setting": "[3]", "value": "−5.36"}]}, {"molecule": "N[C@@H]1CCCC[C@H]1N.N[C@@H]1CCCC[C@H]1N.O.O.O.O.O=C([O-])[C@@H](O)[C@H](O)C(=O)[O-].O=[N+]([O-])[O-].[Pt+2].[Pt+2]", "note": "(relative stereo) [[{Pt(R,R-dach)}2(μ-D-tartH)]NO3•4H2O, D-tartrate-bridged dinuclear 1R,2R-1,2-trans-cyclohexanediamine platinum(II) complex nitrate]", "values": [{"measurement": "Cancer growth inhibitory activity (average log GI50)", "setting": "[1]", "value": "−7.46"}, {"measurement": "cancer growth inhibitory activity relative to oxaliplatin", "setting": "[1]", "value": "about 20 times"}, {"measurement": "Cancer growth inhibitory activity (average log GI50)", "setting": "[2]", "value": "−5.96"}, {"measurement": "cancer growth inhibitory activity relative to oxaliplatin", "setting": "[2]", "value": "about 10 times"}, {"measurement": "Cancer growth inhibitory activity (average log GI50)", "setting": "[4]", "value": "−6.03"}, {"measurement": "cancer growth inhibitory activity relative to oxaliplatin", "setting": "[4]; renal cancer cells, stronger than oxaliplatin", "value": "about 100 times"}, {"measurement": "Cancer growth inhibitory activity (average log GI50)", "setting": "[5]", "value": "−6.02"}, {"measurement": "cancer growth inhibitory activity relative to oxaliplatin", "setting": "[5]; gastric cancer cells, stronger than oxaliplatin", "value": "about 10 times"}]}]}
